In patent US9809623B2, “α4β7 peptide monomer and dimer antagonists” (Protagonist Therapeutics, Inc., priority 2014, dated 2017):
Numbered stars: 1 amine (or outer) side, 2 acyl side, 3 side chain; on linkers, the order of the positions; unused ones are H or OH. Bridge positions count the residues as written; N and C are the ends. Square brackets hold non-standard residues; d marks the D form. Peptide text beside a SMILES is read from it. I, II: the chains in the order shown. * marks the point of attachment. X1 = O=C(CCOCCOCCOCCOCCOCCOCCOCCOCCOCCOCCOCCOCCOCCOCCOCCOCCOCCOCCOCCOCCOCCOCCOCCOCCOCCOCCC(=O)[*:2])[*:1]; Phe(4-tBu) = CC(C)(C)c1ccc(C[C@H](N)C(=O)O)cc1; 2Nal = N[C@@H](Cc1ccc2ccccc2c1)C(=O)O; d1Nal = N[C@H](Cc1cccc2ccccc12)C(=O)O; Diglycolyl = O=C(COCC(=O)[*:2])[*:1]; NMeR = CN[C@@H](CCCNC(=N)N)C(=O)O; Tic = O=C(O)[C@@H]1Cc2ccccc2CN1; β3hE = N[C@@H](CCC(=O)O)CC(=O)O; Pen = CC(C)(S)[C@H](N)C(=O)O; Lauroyl = CCCCCCCCCCCC(=O)*

Each compound was assayed against α4β7 (Homo sapiens, UniProt P13612+P26010) (assay: α4β7-MAdCAM Cell Adhesion Assay (RPMI 8866 human cells)). Details: Table 3-B, Potency (α4β7); range classes; read-out: α4β7 cell (Hu) IC50.
Sequence of α4β7 (P13612 34-1032): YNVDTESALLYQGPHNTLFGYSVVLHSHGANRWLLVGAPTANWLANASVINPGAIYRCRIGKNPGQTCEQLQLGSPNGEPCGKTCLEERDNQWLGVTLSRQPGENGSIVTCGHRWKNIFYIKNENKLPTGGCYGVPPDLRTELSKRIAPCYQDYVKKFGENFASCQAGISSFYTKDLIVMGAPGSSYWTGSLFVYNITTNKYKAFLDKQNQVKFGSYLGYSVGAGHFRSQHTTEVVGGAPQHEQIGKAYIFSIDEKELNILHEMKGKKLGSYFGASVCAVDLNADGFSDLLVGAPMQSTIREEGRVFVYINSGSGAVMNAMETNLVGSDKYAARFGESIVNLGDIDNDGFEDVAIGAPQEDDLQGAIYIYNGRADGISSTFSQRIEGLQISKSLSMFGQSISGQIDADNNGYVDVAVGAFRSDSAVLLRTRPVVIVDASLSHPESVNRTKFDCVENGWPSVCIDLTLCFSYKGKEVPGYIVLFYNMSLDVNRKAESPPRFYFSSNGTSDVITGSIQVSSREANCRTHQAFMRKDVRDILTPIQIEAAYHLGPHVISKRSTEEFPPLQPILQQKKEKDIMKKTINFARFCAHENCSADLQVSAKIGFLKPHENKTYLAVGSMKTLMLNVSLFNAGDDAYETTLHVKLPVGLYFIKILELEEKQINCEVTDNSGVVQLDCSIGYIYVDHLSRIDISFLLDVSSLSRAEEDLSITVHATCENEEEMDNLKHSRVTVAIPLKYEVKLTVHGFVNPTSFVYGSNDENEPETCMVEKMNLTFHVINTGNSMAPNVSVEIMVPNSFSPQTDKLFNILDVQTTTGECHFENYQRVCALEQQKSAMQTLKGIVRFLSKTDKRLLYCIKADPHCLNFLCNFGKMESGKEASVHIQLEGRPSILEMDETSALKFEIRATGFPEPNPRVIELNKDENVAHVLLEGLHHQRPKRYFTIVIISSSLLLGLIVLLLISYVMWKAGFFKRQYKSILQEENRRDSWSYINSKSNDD
Sequence of α4β7 (P26010 20-798): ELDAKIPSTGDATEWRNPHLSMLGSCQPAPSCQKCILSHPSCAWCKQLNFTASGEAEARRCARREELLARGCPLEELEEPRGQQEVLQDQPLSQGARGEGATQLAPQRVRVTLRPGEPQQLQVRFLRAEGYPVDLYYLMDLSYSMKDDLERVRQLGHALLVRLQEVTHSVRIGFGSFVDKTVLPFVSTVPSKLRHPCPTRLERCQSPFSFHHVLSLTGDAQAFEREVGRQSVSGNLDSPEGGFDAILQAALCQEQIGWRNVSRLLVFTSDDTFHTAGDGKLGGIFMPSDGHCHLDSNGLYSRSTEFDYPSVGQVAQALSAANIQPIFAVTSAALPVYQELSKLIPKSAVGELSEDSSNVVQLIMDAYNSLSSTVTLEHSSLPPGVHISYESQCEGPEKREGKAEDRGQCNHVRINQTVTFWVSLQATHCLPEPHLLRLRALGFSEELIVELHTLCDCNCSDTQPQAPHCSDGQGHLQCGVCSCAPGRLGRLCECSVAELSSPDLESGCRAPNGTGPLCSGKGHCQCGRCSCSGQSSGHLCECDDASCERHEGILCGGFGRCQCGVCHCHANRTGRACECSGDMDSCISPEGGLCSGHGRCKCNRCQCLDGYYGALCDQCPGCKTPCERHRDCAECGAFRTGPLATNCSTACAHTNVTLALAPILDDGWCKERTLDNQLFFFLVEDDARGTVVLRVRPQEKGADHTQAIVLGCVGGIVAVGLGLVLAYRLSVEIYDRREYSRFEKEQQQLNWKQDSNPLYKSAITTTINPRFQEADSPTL
Assay type: cell-based
Design: host or cells: RPMI 8866 human B lymphoblastoid cells
Method in brief: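 Washed RPMI 8866 cells (200,000/well) in DMEM with 0.1% BSA, 10 mM HEPES pH 7, 1 mM MnCl2 adhered to rh MAdCAM-1/Fc-coated wells with serially diluted peptides, 30-45 min at 37 °C. After three washes, bound cells quantified by MTT, A570, cell-free background subtracted for dose response.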

Question: For CC(=O)N[C@@H]1C(=O)N(C)[C@@H](CCCNC(=N)N)C(=O)N[C@@H](CO)C(=O)N[C@@H](CC(=O)O)C(=O)N[C@@H]([C@@H](C)O)C(=O)N[C@@H](CC(C)C)C(=O)N[C@H](C(=O)N[C@@H](Cc2c[nH]cn2)C(=O)N[C@@H](Cc2ccc(O)cc2)C(=O)N[C@H](CCCCNC(=O)COCC(=O)NCCCC[C@@H](NC(=O)[C@H](Cc2ccc(O)cc2)NC(=O)[C@H](Cc2c[nH]cn2)NC(=O)[C@H]2NC(=O)[C@H](CC(C)C)NC(=O)[C@H]([C@@H](C)O)NC(=O)[C@H](CC(=O)O)NC(=O)[C@H](CO)NC(=O)[C@H](CCCNC(=N)N)N(C)C(=O)[C@@H](NC(C)=O)C(C)(C)SSC2(C)C)C(N)=O)C(N)=O)C(C)(C)SSC1(C)C [compound 26] (I: Ac-[Pen][NMeR]SDTL[Pen]HY[dK]-NH2 / II: Ac-[Pen][NMeR]SDTL[Pen]HY[dK]-NH2; disulfide I:1-I:7, II:1-II:7; linker I:10-II:10 via Diglycolyl), which IC50 is on record?
Answer: 100 to 500 nM

Question: How did the IC50 turn out when CC(=O)N[C@@H]1C(=O)N(C)[C@@H](CCCNC(=N)N)C(=O)N[C@@H](CO)C(=O)N[C@@H](CC(=O)O)C(=O)N[C@@H]([C@@H](C)O)C(=O)N[C@@H](CC(C)C)C(=O)N[C@H](C(=O)N[C@@H](Cc2ccc3ccccc3c2)C(=O)N[C@H](CC(C)C)C(=O)N[C@H](CCCCNC(=O)COCC(=O)NCCCC[C@@H](NC(=O)[C@@H](CC(C)C)NC(=O)[C@H](Cc2ccc3ccccc3c2)NC(=O)[C@H]2NC(=O)[C@H](CC(C)C)NC(=O)[C@H]([C@@H](C)O)NC(=O)[C@H](CC(=O)O)NC(=O)[C@H](CO)NC(=O)[C@H](CCCNC(=N)N)N(C)C(=O)[C@@H](NC(C)=O)C(C)(C)SSC2(C)C)C(N)=O)C(N)=O)C(C)(C)SSC1(C)C [compound 119] (I: Ac-[Pen][NMeR]SDTL[Pen][2Nal][dL][dK]-NH2 / II: Ac-[Pen][NMeR]SDTL[Pen][2Nal][dL][dK]-NH2; disulfide I:1-I:7, II:1-II:7; linker I:10-II:10 via Diglycolyl) was run?
Answer: 500 to 1000 nM

Question: Which IC50 does the source give for CC(=O)N[C@@H]1C(=O)N(C)[C@@H](CCCNC(=N)N)C(=O)N[C@@H](CO)C(=O)N[C@@H](CC(=O)O)C(=O)N[C@@H]([C@@H](C)O)C(=O)N[C@@H](CC(C)C)C(=O)N[C@H](C(=O)N[C@@H](Cc2ccc3ccccc3c2)C(=O)N2Cc3ccccc3C[C@H]2C(=O)N[C@H](CCCCNC(=O)COCC(=O)NCCCC[C@@H](NC(=O)[C@@H]2Cc3ccccc3CN2C(=O)[C@H](Cc2ccc3ccccc3c2)NC(=O)[C@H]2NC(=O)[C@H](CC(C)C)NC(=O)[C@H]([C@@H](C)O)NC(=O)[C@H](CC(=O)O)NC(=O)[C@H](CO)NC(=O)[C@H](CCCNC(=N)N)N(C)C(=O)[C@@H](NC(C)=O)C(C)(C)SSC2(C)C)C(N)=O)C(N)=O)C(C)(C)SSC1(C)C [compound 121] (I: Ac-[Pen][NMeR]SDTL[Pen][2Nal][Tic][dK]-NH2 / II: Ac-[Pen][NMeR]SDTL[Pen][2Nal][Tic][dK]-NH2; disulfide I:1-I:7, II:1-II:7; linker I:10-II:10 via Diglycolyl) here?
Answer: 100 to 500 nM

Question: How did the IC50 turn out when CC(=O)N[C@@H]1C(=O)N(C)[C@@H](CCCNC(=N)N)C(=O)N[C@@H](CO)C(=O)N[C@@H](CC(=O)O)C(=O)N[C@@H]([C@@H](C)O)C(=O)N[C@@H](CC(C)C)C(=O)N[C@H](C(=O)N[C@H](Cc2cccc3ccccc23)C(=O)N[C@@H](CCC(=O)O)C(=O)N[C@H](CCCCNC(=O)COCC(=O)NCCCC[C@@H](NC(=O)[C@H](CCC(=O)O)NC(=O)[C@@H](Cc2cccc3ccccc23)NC(=O)[C@H]2NC(=O)[C@H](CC(C)C)NC(=O)[C@H]([C@@H](C)O)NC(=O)[C@H](CC(=O)O)NC(=O)[C@H](CO)NC(=O)[C@H](CCCNC(=N)N)N(C)C(=O)[C@@H](NC(C)=O)C(C)(C)SSC2(C)C)C(N)=O)C(N)=O)C(C)(C)SSC1(C)C [compound 34] (I: Ac-[Pen][NMeR]SDTL[Pen][d1Nal]E[dK]-NH2 / II: Ac-[Pen][NMeR]SDTL[Pen][d1Nal]E[dK]-NH2; disulfide I:1-I:7, II:1-II:7; linker I:10-II:10 via Diglycolyl) was run?
Answer: 25 to 50 nM

Question: Which IC50 does the source give for COc1ccc(C[C@H](NC(=O)[C@H]2NC(=O)[C@H](CC(C)C)NC(=O)[C@H]([C@@H](C)O)NC(=O)[C@H](CC(=O)O)NC(=O)[C@H](CO)NC(=O)[C@H](CCCNC(=N)N)N(C)C(=O)[C@@H](NC(C)=O)C(C)(C)SSC2(C)C)C(=O)N[C@H](CCC(=O)O)C(=O)N[C@H](CCCCNC(=O)COCC(=O)NCCCC[C@@H](NC(=O)[C@@H](CCC(=O)O)NC(=O)[C@H](Cc2ccc(OC)cc2)NC(=O)[C@H]2NC(=O)[C@H](CC(C)C)NC(=O)[C@H]([C@@H](C)O)NC(=O)[C@H](CC(=O)O)NC(=O)[C@H](CO)NC(=O)[C@H](CCCNC(=N)N)N(C)C(=O)[C@@H](NC(C)=O)C(C)(C)SSC2(C)C)C(N)=O)C(N)=O)cc1 [compound 103] (I: Ac-[Pen][NMeR]SDTL[Pen]Y(Me)[dE][dK]-NH2 / II: Ac-[Pen][NMeR]SDTL[Pen]Y(Me)[dE][dK]-NH2; disulfide I:1-I:7, II:1-II:7; linker I:10-II:10 via Diglycolyl) here?
Answer: 25 to 50 nM

Question: CC(=O)N[C@H]1CSSC(C)(C)[C@@H](C(=O)N[C@@H](Cc2c[nH]c3ccccc23)C(=O)N[C@H](CCCCNC(=O)CCOCCOCCOCCOCCOCCOCCOCCOCCOCCOCCOCCOCCOCCOCCOCCOCCOCCOCCOCCOCCOCCOCCOCCOCCOCCOCCC(=O)NCCCC[C@@H](NC(=O)[C@H](Cc2c[nH]c3ccccc23)NC(=O)[C@H]2NC(=O)[C@H](CC(C)C)NC(=O)[C@H]([C@@H](C)O)NC(=O)[C@H](CC(=O)O)NC(=O)[C@H](CO)NC(=O)[C@H](CCCNC(=N)N)N(C)C(=O)[C@@H](NC(C)=O)CSSC2(C)C)C(N)=O)C(N)=O)NC(=O)[C@H](CC(C)C)NC(=O)[C@H]([C@@H](C)O)NC(=O)[C@H](CC(=O)O)NC(=O)[C@H](CO)NC(=O)[C@H](CCCNC(=N)N)N(C)C1=O [compound 37] (I: Ac-C[NMeR]SDTL[Pen]W[dK]-NH2 / II: Ac-C[NMeR]SDTL[Pen]W[dK]-NH2; disulfide I:1-I:7, II:1-II:7; linker I:9-II:9 via X1) was tested. Which IC50 did it give?
Answer: 100 to 500 nM

Question: How did the IC50 turn out when CCCCCCCCCCCC(=O)N[C@@H]1C(=O)N(C)[C@@H](CCCNC(=N)N)C(=O)N[C@@H](CO)C(=O)N[C@@H](CC(=O)O)C(=O)N[C@@H]([C@@H](C)O)C(=O)N[C@@H](CC(C)C)C(=O)N[C@H](C(=O)N[C@@H](Cc2ccc(C(C)(C)C)cc2)C(=O)N[C@@H](CCC(=O)O)CC(=O)N[C@H](CCCCN)C(N)=O)C(C)(C)SSC1(C)C [compound 179] (Lauroyl-[Pen][NMeR]SDTL[Pen][Phe(4-tBu)][β3hE][dK]-NH2; disulfide 1-7) was run?
Answer: 100 to 500 nM

Question: Which IC50 does the source give for CC(=O)N[C@@H]1C(=O)N(C)[C@@H](CCCNC(=N)N)C(=O)N[C@@H](CO)C(=O)N[C@@H](CC(=O)O)C(=O)N[C@@H]([C@@H](C)O)C(=O)N[C@@H](CC(C)C)C(=O)N[C@H](C(=O)N[C@@H](Cc2c[nH]c3ccccc23)C(=O)N[C@@H](CC(=O)O)C(=O)N[C@H](CCCCNC(=O)COCC(=O)NCCCC[C@@H](NC(=O)[C@H](CC(=O)O)NC(=O)[C@H](Cc2c[nH]c3ccccc23)NC(=O)[C@H]2NC(=O)[C@H](CC(C)C)NC(=O)[C@H]([C@@H](C)O)NC(=O)[C@H](CC(=O)O)NC(=O)[C@H](CO)NC(=O)[C@H](CCCNC(=N)N)N(C)C(=O)[C@@H](NC(C)=O)C(C)(C)SSC2(C)C)C(N)=O)C(N)=O)C(C)(C)SSC1(C)C [compound 87] (I: Ac-[Pen][NMeR]SDTL[Pen]WD[dK]-NH2 / II: Ac-[Pen][NMeR]SDTL[Pen]WD[dK]-NH2; disulfide I:1-I:7, II:1-II:7; linker I:10-II:10 via Diglycolyl) here?
Answer: 25 to 50 nM
